Here are results for two substances from US12656349B2, “Measurement of bevacizumab-insensitive vascular endothelial growth factor-a” (Board of Regents, The University of Texas System, priority 2019, dated 2026).

One assay addresses T1, sEV-VEGF (Homo sapiens, UniProt P15692).
T1 construct: Parental ES2, SKOV3, HCT116 and 786-0 cell lines were purchased from ATCC; endogenous in cells; host or cells: sEVs of parental (VEGF+/+) ES2 and HCT116 cells
T1 sequence (P15692 27-215 isoform P15692-2): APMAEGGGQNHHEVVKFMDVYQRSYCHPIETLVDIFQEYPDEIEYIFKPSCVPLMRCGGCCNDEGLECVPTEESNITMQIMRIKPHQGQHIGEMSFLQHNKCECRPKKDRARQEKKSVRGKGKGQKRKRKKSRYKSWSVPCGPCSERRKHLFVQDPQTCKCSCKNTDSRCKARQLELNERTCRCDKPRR
As to the kind of experiment: Flow cytometric analysis of binding of coupled microbeads to VEGF on the surface of sEVs. The following applies: exo-FITC fluorescence. On the technique in general: In flow cytometry, cells or beads pass a laser one at a time.

For a further assay, the system named is HUVEC. Description: Tube formation assay in HUVEC. Format: cell-based, human. The method, then:
(§1) Uptake of sEVs was blocked by treating HUVEC with chlorpromazine (15 μM) or dynasore (50 μM) for 30 min prior to addition of sEVs. As a negative control, HUVEC were pretreated with DMSO solvent (0.1%). VEGFR signaling was blocked by treating HUVEC with axitinib (1 nM) or vandetanib (1 μM) for 2 h or with neutralizing Ab to VEGFR2 (250 ng/mL) for 1 h prior to addition of sEVs or recombinant VEGF. […] Thereafter, mixtures were added to HUVEC cultures. To detect intracellular VEGF, cancer cells where indicated were incubated at 37° C. for 6 h with brefeldin A (BioLegend) (5 μg/mL) to block protein secretion and then harvested.
Wells of 96-well plates were coated with growth factor-reduced Matrigel (BD Biosciences) (50 μL/well) and incubated at 37° C. for 30 min. HUVEC (10^4 cells/well) were then seeded in FBS-free Medium 199 without or with addition of sEVs (100 μg/mL) or recombinant VEGF (1 ng/mL), or seeded in whole or sEV-depleted conditioned media. Following incubation at 37° C. for 4 h, capillary tube structures were visualized under a Nikon TS100 light microscope attached to a digital camera. In each experiment, images of 2 to 3 random 100× fields of each well were captured by using NIS Element BR 4 software (Nikon). The number of tubes in each field was quantified by using NIH Image) software with Angiogenesis Analyzer plugin, and an average calculated for each well. […]

Another assay deals with ES2 VEGF^−/− cells. As to the kind of experiment: Nude mice with i.p. ES2 VEGF−/− xenografts administered sEVs or recombinant VEGF. Format: in vivo. The following applies: vs control Ig. The method, then:
(§2) Animal studies were conducted in compliance with protocols approved by the UTMDACC Institutional Animal Care and Use Committee. Four-week-old female nude mice (purchased from UTMDACC animal facility) were used to propagate xenografts. To evaluate VEGF levels in ascites, mice were inoculated i.p, with 1×10^6 ES2 VEGF^+/+ cells, and euthanized by CO2 asphyxiation upon formation of morbid ascites (median survival time of 3 weeks), To evaluate the effects of sEVs, mice were inoculated i.p. with 2×10^6 GFP-expressing ES2 VEGF^−/− cells. […] Mice were treated with these agents i.p. 3 times a week for 2 weeks and thereafter euthanized. […] The 6 doses of sEVs at 500 μg per dose was based on the average volume of ascites and concentration of tumor-derived sEV-VEGF in ascites that forms in mice with i.p. xenografts derived from ES2 VEGF^+/+ cells (FIGS. 15A, 15B). Following euthanasia, volumes of ascites were measured. GFP-expressing tumors were visualized under a Leica MZMLIII stereomicroscope equipped with a GFP filter set and digital camera. Images were captured by using Picture Frame software (Optronics). Tumor burden was quantified by measuring areas of fluorescence signals within the abdominal cavity in captured images by using Image Pro Plus software (Media Cybernetics) as performed previously (Ko et al., 2009). To visualize intratumoral blood vessels, sections of omental tumor tissues, frozen in Optimal Cutting Temperature compound (Thermo Fisher Scientific), were stained with Ab to GFP (1:500 dilution) and CD31 (1:50 dilution) and with DAPI, and viewed under a Nikon 80i fluorescence microscope. Numbers of intratumoral CD31^+ cells were counted in 5 random 100× fields per section and an average score was determined for each mouse. To evaluate circulating VEGF levels, mice were inoculated s.c. with 5×10^6 ES2 VEGF^+/+ cells or HCT116 VEGF^+/+ cells. At 7 days thereafter when tumors were palpable, blood samples were collected retro-orbitally. […] Volumes of s.c. tumors were calculated from 2 perpendicular measurements of tumor diameters taken using calipers. Pre- and post-treatment plasma samples were pre-cleared with Protein G Sepharose 4 Fast Flow (GE Healthcare) at 4° C. for 16 h to remove Ab-bound VEGF and thereafter were assayed for VEGF by ELISA.

For another assay, the system named is parental ES2 cells. Description: Nude mice with s.c. tumors from parental ES2 cells, tumor volume and plasma human VEGF. Format: in vivo. The method, then: as §2, with “Pre- and post-treatment plasma samples were pre-cleared with Protein G Sepharose 4 Fast Flow (GE Healthcare) at 4° C. for 16 h to remove Ab-bound VEGF and thereafter were assayed for VEGF by ELISA.” left out

The next assay relates to parental HCT116 cells. Description: Nude mice with s.c. tumors from parental HCT116 cells, tumor volume and plasma human VEGF. Format: in vivo. How it is done: as §2, with “Pre- and post-treatment plasma samples were pre-cleared with Protein G Sepharose 4 Fast Flow (GE Healthcare) at 4° C. for 16 h to remove Ab-bound VEGF and thereafter were assayed for VEGF by ELISA.” left out

The subject of assay [1] is VEGF in cancer cell-conditioned media. Description: Quantification of unbound bevacizumab in whole and sEV-depleted cancer cell-conditioned media (ELISA). It counts as binding, human. How it is done: Samples of plasma and ascites (diluted 1:10 in PBS) and conditioned media were centrifuged at 2,400×g at 4° C. for 10 min to remove intact cells and cell debris. Thereafter, supernatants were filtered through a 0.2 μm pore size filter to remove larger particles. A 300 μL aliquot of filtrate was retained for analysis of VEGF. The remainder of the filtrate was centrifuged at 100,000×g at 4° C. for 18 h to remove sEVs. Thereafter, the supernatant (comprising of sEV-depleted sample) was assayed for VEGF.
Wells of 96-well High Bind microplates were coated with recombinant VEGF (100 ng) at RT for 16 h, After washing three times with wash buffer (R&D Systems), wells were blocked with 10% goat serum for 1 h and washed again. […] Absorbance was read at 450 nm.
(In general: An ELISA detects its analyte on a solid surface through an enzyme-linked reagent.)

The next assay relates to VEGFR2. Description: VEGFR2 phosphorylation in HUVEC (immunoblot). Format: cell-based, human. How it is done: as §1
Extracts were prepared by lysing whole cells and sEVs in M-PER buffer (Thermo Fisher Scientific). Protein concentrations of lysates were determined by Bradford assay (BioRad). Lysates were separated by SDS-polyacrylamide gel electrophoresis under non-reducing conditions to detect VEGF and under reducing conditions to detect other proteins, and then transferred to polyvinylidene difluoride membrane (GE Healthcare). Membranes were blocked with 5% non-fat milk in Tris-buffered saline with 0.1% Tween-20 (TBS-T), incubated with primary Ab at 4° C. for 16 h, and then washed with TBS-T buffer. Primary Ab were used at the following dilutions: 1:1000 (for Ab to TSG101, α-actinin-4, HSP90B1, calnexin, phospho-VEGFR2, VEGFR2, VEGF); 1:2000 (for Ab to HSP70); 1:5000 (for Ab to actin). Thereafter, membranes were incubated with 1-IRP-conjugated secondary Ab (1:5000 dilution), washed and visualized with ECL detection reagent (Millipore). Immunoblot data was verified in 3 independent experiments.
For orientation: In western blotting, separated proteins are transferred to a membrane and probed.

Setting [2] is: endothelial cells stimulated with VEGF+/+ sEVs.
Setting [3] is: endothelial cells stimulated with recombinant VEGF.

Experimental for sEV-VEGF: To detect sEV-associated proteins by using Ab-coupled microbeads, acquisition and analysis of flow cytometry data were performed using a FACSCalibur™ cytometer equipped with CellQuest™ Pro software (BD Biosciences). […] Thereafter, microbeads were incubated with sEVs (100 μg, approximately 2×10^8 vesicles) at 4° C. for 16 h with rotation, washed with 1% BSA in PBS, stained with exo-FITC dye, and then acquired. Binding of Ab to protein on the surface of sEVs was evaluated by analyzing exo-FITC fluorescence in the gated population of singlet microbeads. A minimum of 10,000 gated events was analyzed for each sample. […] Following washing, microbeads were acquired and PerCP fluorescence analyzed in the gated population of singlet microbeads. […] Three independent experiments were performed for each assay. Contour plots were generated by using CellQuest™ Pro software.

Consider “VEGFR1/R2-Fc: chimera of the ligand-binding domains of VEGFR1 and VEGFR2 fused to the Fc portion of human IgG1”, for which the “Binding to VEGF+/+ sEVs” value with sEV-VEGF (coupled microbeads incubated with VEGF+/+ sEVs) is “bound”. Moreover, in the assay with sEV-VEGF (coupled microbeads incubated with VEGF−/− sEVs (negative control)), the “Binding to VEGF−/− sEVs” value was “not”.

With “bevacizumab: humanized monoclonal antibody to human vascular endothelial growth factor (VEGF)”, the Tube formation entry is given as “not” in the assay on HUVEC (setting [2]) and “blocked” in the assay on HUVEC (setting [3]). The Angiogenesis entry is “not” in the assay on ES2 VEGF^−/− cells (mice administered VEGF+/+ sEVs) and “inhibited” with ES2 VEGF^−/− cells (mice administered recombinant VEGF189, P<0.0001). The Ascites entry is recorded as “not” in the assay with ES2 VEGF^−/− cells (mice administered VEGF+/+ sEVs) and “inhibited” in the assay on ES2 VEGF^−/− cells (mice administered recombinant VEGF189, P<0.001). The Tumor growth result in the assay with ES2 VEGF^−/− cells (mice administered VEGF+/+ sEVs) was “not”; in the assay with ES2 VEGF^−/− cells (mice administered recombinant VEGF189, 5 mg/kg i.p. 3 times a week for 2 weeks, P<0.001), “inhibited”; in the assay with parental ES2 cells (s.c. ES2 tumors, treatment for one week) it was “did not inhibit”; in the assay on parental HCT116 cells (s.c. HCT116 tumors, treatment for one week), “did not inhibit”. Further, the “sEV-VEGF levels in plasma” value in the assay with parental ES2 cells (ES2, estimated from difference between whole and sEV-depleted plasma, following treatment, P<0,01) is “increased”; in the assay with parental HCT116 cells (HCT116, estimated from difference between whole and sEV-depleted plasma, following treatment, P<0.05), “increased”. Further, the “non-sEV-VEGF levels in plasma” value is “decreased” in the assay on parental ES2 cells (ES2, sEV-depleted plasma, following treatment, P<0.05) and “decreased” in the assay on parental HCT116 cells (HCT116, sEV-depleted plasma, following treatment, P<0.001). Moreover, the “Levels of unbound bevacizumab in whole media compared with sEV-depleted media” value in assay [1] (cancer cell-conditioned media incubated with bevacizumab) is “almost identical”. Further, the Unbound bevacizumab levels result in assay [1] (sEV-depleted media to which recombinant VEGF189 had been added) was “decrease”. Further, the VEGFR2 phosphorylation entry in the assay on VEGFR2 (setting [2]) is on record as “not”; in the assay with VEGFR2 (setting [3]), “blocked”; with VEGFR2 (endothelial cells stimulated with sEV-depleted media) it was “completely blocked”; with VEGFR2 (endothelial cells stimulated with whole media), “only partially inhibited”.
